Structures are written as SMILES. Read-outs that look alike come from different tables or passages of the source.

Results on 21 compounds are retold here after patent US8404708B2, “Dual NK1/NK3 receptor antagonists” (Hoffmann-La Roche Inc., priority 2004, dated 2013).

One assay has as its target human NK1 receptor (Homo sapiens, UniProt P25103). Kind of assay: NK1 receptor binding, [3H]substance P displacement, CHO cell membranes.
In assay [1] the target is T1, Recombinant human NK3 (hNK3) receptor (Homo sapiens, UniProt P29371).
T1 construct: expressed in transfected cells
T1 sequence (P29371 1-465): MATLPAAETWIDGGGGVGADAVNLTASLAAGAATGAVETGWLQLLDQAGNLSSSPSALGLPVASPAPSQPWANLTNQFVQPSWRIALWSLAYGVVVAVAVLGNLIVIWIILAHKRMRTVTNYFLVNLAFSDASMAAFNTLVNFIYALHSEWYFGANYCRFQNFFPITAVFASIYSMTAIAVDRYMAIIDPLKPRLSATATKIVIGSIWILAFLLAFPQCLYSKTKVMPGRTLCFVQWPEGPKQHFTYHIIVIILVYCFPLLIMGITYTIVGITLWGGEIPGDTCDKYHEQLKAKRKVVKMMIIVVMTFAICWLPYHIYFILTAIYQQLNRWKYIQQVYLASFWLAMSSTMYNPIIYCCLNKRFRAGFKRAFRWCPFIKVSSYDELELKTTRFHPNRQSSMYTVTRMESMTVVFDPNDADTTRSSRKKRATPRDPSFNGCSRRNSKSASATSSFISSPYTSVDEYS
Kind of assay: NK3 receptor binding, [3H]SR142801 displacement, membrane preparations. Here is the method:
Non specific binding was determined using 10 μM SB222200. Assay buffer consisted of Tris-HCl (50 mM, pH 7.4), BSA (0.1%), MnCl2 (4 mM) and phosphoramidon (1 μM). Membrane preparations of hNK3 receptors (approximately 2.5 μg/well in a 96 well plate) were used to initiate the incubation for 90 min at room temperature. This assay was terminated by rapid filtration under vacuum through GF/C filters, presoaked for 90 min with PEI (0.3%), with 3×0.5 ml washes of ice-cold Tris buffer (50 mM, pH 7.4) containing 0.1% BSA. The radioactivity retained on the filters was measured by scintillation counting. All assays were performed in duplicate in at least two separate experiments.

[2] abbreviates: first value of the cell pKi NK1/NK3, human NK1 receptor, [3H]substance P.
Setting [3] is: second value of the cell pKi NK1/NK3, hNK3 receptor, [3H]SR142801.
Setting [4] is: first value of the cell NK1/NK3, read-out: pKi NK1 (converted).
[5] abbreviates: second value of the cell NK1/NK3, read-out: pKi NK3 (converted).

human NK1 receptor, sequence (P25103 whole entry): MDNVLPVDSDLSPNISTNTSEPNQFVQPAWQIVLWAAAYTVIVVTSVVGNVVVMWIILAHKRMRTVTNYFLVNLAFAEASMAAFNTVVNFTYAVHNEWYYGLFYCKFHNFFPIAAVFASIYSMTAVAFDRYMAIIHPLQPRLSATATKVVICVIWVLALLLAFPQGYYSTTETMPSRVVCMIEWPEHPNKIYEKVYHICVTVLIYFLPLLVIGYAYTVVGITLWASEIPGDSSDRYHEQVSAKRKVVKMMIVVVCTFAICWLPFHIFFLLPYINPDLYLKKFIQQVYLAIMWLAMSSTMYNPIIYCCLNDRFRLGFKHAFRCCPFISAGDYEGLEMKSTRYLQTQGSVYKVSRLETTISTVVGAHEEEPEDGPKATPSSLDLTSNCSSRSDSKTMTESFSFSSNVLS

For the compound `CC(O)CNc1cc(-c2ccccc2Cl)c(N(C)C(=O)C(C)(C)c2cc(C(F)(F)F)cc(C(F)(F)F)c2)cn1` (racemic) [Example 74, (RS)-2-(3,5-Bis-trifluoromethyl-phenyl)-N-[4-(2-chloro-phenyl)-6-(2-hydroxy-propylamino)-pyridin-3-yl]-N-methyl-isobutyramide], the Ki is 0.871 nM on human NK1 receptor (setting [2]) and 5.75 nM in assay [1] (setting [3]).

As for `Cc1ccccc1-c1cc(NC(CO)CO)ncc1N(C)C(=O)C(C)(C)c1cc(C(F)(F)F)cc(C(F)(F)F)c1` [Example 143, 2-(3,5-Bis-trifluoromethyl-phenyl)-N-[6-(2-hydroxy-1-hydroxymethyl-ethylamino)-4-o-tolyl-pyridin-3-yl]-N-methyl-isobutyramide], the Ki on human NK1 receptor (setting [2]) is 3.02 nM; in assay [1] (setting [3]) it was 3.63 nM.

With `CCCCCN(CCO)c1cc(-c2ccccc2Cl)c(N(C)C(=O)C(C)(C)c2cc(C(F)(F)F)cc(C(F)(F)F)c2)cn1` [Example 149, 2-(3,5-Bis-trifluoromethyl-phenyl)-N-{4-(2-chloro-phenyl)-6-[(2-hydroxy-ethyl)-pentyl-amino]-pyridin-3-yl}-N-methyl-isobutyramide], the Ki on human NK1 receptor (setting [2]) was 1.29 nM; in assay [1] (setting [3]) it was 6.17 nM.

As for `Cc1cc(F)ccc1-c1cc(N2CC[C@H](O)C2)ncc1N(C)C(=O)C(C)(C)c1cc(C(F)(F)F)cc(C(F)(F)F)c1` [Example 109, (S)-2-(3,5-Bis-trifluoromethyl-phenyl)-N-[4-(4-fluoro-2-methyl-phenyl)-6-(3-hydroxy-pyrrolidin-1-yl)-pyridin-3-yl]-N-methyl-isobutyramide], the values for the Ki (on human NK1 receptor (setting [2]); in assay [1] (setting [3])) were 2.04 nM and 13.5 nM, respectively.

Regarding `CN(C(=O)C(C)(C)c1cc(C(F)(F)F)cc(C(F)(F)F)c1)c1cnc(NCCS(C)(=O)=O)cc1-c1ccccc1Cl` [Example 89, 2-(3,5-Bis-trifluoromethyl-phenyl)-N-[4-(2-chloro-phenyl)-6-(2-methanesulfonyl-ethylamino)-pyridin-3-yl]-N-methyl-isobutyramide], the values for the Ki (on human NK1 receptor (setting [2]); in assay [1] (setting [3])) were 0.49 nM and 3.24 nM, respectively.

Consider `Cc1cc(C)cc(C(C)(C)C(=O)N(C)c2cnc(N3C[C@H](O)C[C@H]3CO)cc2-c2ccccc2C)c1` [Example 20, (2S,4R)-2-(3,5-Dimethyl-phenyl)-N-[6-(4-hydroxy-2-hydroxymethyl-pyrrolidin-1-yl)-4-o-tolyl-pyridin-3-yl]-N-methyl-isobutyramide], for which the Ki on human NK1 receptor (setting [2]) was 1.15 nM; in assay [1] (setting [3]) it was 6.17 nM.

Turning to `Cc1cc(F)ccc1-c1cc(N(C)C(CO)CO)ncc1N(C)C(=O)C(C)(C)c1cc(C(F)(F)F)cc(C(F)(F)F)c1` [Example 196, 2-(3,5-Bis-trifluoromethyl-phenyl)-N-{4-(4-fluoro-2-methyl-phenyl)-6-[(2-hydroxy-1-hydroxymethyl-ethyl)-methyl-amino]-pyridin-3-yl}-N-methyl-isobutyramide], the Ki is 1.74 nM on human NK1 receptor (setting [2]) and 4.57 nM in assay [1] (setting [3]).

`CN(C(=O)C(C)(C)c1cc(C(F)(F)F)cc(C(F)(F)F)c1)c1cnc(N2C[C@@H](O)C[C@H]2CO)cc1-c1ccc(F)cc1CO` [Example 240, (2S,4S)-2-(3,5-Bis-trifluoromethyl-phenyl)-N-[4-(4-fluoro-2-hydroxymethyl-phenyl)-6-(4-hydroxy-2-hydroxymethyl-pyrrolidin-1-yl)-pyridin-3-yl]-N-methyl-isobutyramide]: the values for the Ki (at human NK1 receptor (setting [4]); in assay [1] (setting [5])) were 0.794 nM and 3.02 nM, respectively.

As for `CN(C(=O)C(C)(C)c1cc(C(F)(F)F)cc(C(F)(F)F)c1)c1cnc(NCCO)cc1-c1ccc(Cl)cc1Cl` [Example 70, 2-(3,5-Bis-trifluoromethyl-phenyl)-N-[4-(2,4-dichloro-phenyl)-6-(2-hydroxy-ethylamino)-pyridin-3-yl]-N-methyl-isobutyramide], the Ki was 2 nM at human NK1 receptor (setting [2]) and 4.07 nM in assay [1] (setting [3]).

As to `CC(=O)NC[C@@H]1CCCN1c1cc(-c2ccc(F)cc2C)c(N(C)C(=O)C(C)(C)c2cc(C(F)(F)F)cc(C(F)(F)F)c2)cn1` [Example 302, (S)-N-[6-[2-(Acetylamino-methyl)-pyrrolidin-1-yl]-4-(4-fluoro-2-methyl-phenyl)-pyridin-3-yl]-2-(3,5-bis-trifluoromethyl-phenyl)-N-methyl-isobutyramide], the Ki is 2.51 nM on human NK1 receptor (setting [4]) and 20.4 nM in assay [1] (setting [5]).

`CN(C(=O)C(C)(C)c1cc(F)cc(F)c1)c1cnc(N2C[C@H](O)C[C@H]2CO)cc1-c1ccccc1Cl` [Example 6, (2S,4R)-N-[4-(2-Chloro-phenyl)-6-(4-hydroxy-2-hydroxymethyl-pyrrolidin-1-yl)-pyridin-3-yl]-2-(3,5-difluoro-phenyl)-N-methyl-isobutyramide]: the Ki at human NK1 receptor (setting [2]) is 7.24 nM; in assay [1] (setting [3]) it was 4.9 nM.

As to `CN(C(=O)C(C)(C)c1cc(C(F)(F)F)cc(C(F)(F)F)c1)c1cnc(N2CCCCC2CCO)cc1-c1ccccc1Cl` (racemic) [Example 53, (RS)-2-(3,5-Bis-trifluoromethyl-phenyl)-N-[4′-(2-chloro-phenyl)-2-(2-hydroxy-ethyl)-3,4,5,6-tetrahydro-2H-[1,2′]bipyridinyl-5′-yl]-N-methyl-isobutyramide], the results for the Ki (on human NK1 receptor (setting [2]); in assay [1] (setting [3])) were 2.51 nM and 24.5 nM, respectively.

On to `Cc1ccccc1-c1cc(N2CCC[C@H]2CO)ncc1N(C)C(=O)C(C)(C)c1cc(F)cc(F)c1` [Example 15, (S)-2-(3,5-Difluoro-phenyl)-N-[6-(2-hydroxymethyl-pyrrolidin-1-yl)-4-o-tolyl-pyridin-3-yl]-N-methyl-isobutyramide], for which the Ki was 6.31 nM on human NK1 receptor (setting [2]) and 4.47 nM in assay [1] (setting [3]).

On to `CN(C(=O)C(C)(C)c1cc(C(F)(F)F)cc(C(F)(F)F)c1)c1cnc(N(CCO)CCO)cc1-c1ccccc1Cl` [Example 82, N-[6-[Bis-(2-hydroxy-ethyl)-amino]-4-(2-chloro-phenyl)-pyridin-3-yl]-2-(3,5-bis-trifluoromethyl-phenyl)-N-methyl-isobutyramide], for which the Ki at human NK1 receptor (setting [2]) is 0.933 nM; in assay [1] (setting [3]), 0.813 nM.

`CN(C(=O)C(C)(C)c1cc(C(F)(F)F)cc(C(F)(F)F)c1)c1cnc(N2C[C@@H](O)C[C@H]2CO)cc1-c1ccccc1C(F)(F)F` [Example 243, (2S,4S)-2-(3,5-Bis-trifluoromethyl-phenyl)-N-[6-(4-hydroxy-2-hydroxymethyl-pyrrolidin-1-yl)-4-(2-trifluoromethyl-phenyl)-pyridin-3-yl]-N-methyl-isobutyramide]: the Ki on human NK1 receptor (setting [4]) is 3.89 nM; in assay [1] (setting [5]), 4.68 nM.

With `CN(C(=O)C(C)(C)c1cc(C(F)(F)F)cc(C(F)(F)F)c1)c1cnc(NC(CO)CO)cc1-c1ccccc1Cl` [Example 81, 2-(3,5-Bis-trifluoromethyl-phenyl)-N-[4-(2-chloro-phenyl)-6-(2-hydroxy-1-hydroxymethyl-ethylamino)-pyridin-3-yl]-N-methyl-isobutyramide], the Ki on human NK1 receptor (setting [2]) was 2.09 nM; in assay [1] (setting [3]), 5.62 nM.

As for `Cc1cc(F)ccc1-c1cc(N2CCC[C@H]2CO)ncc1N(C)C(=O)C(C)(C)c1cc(F)cc(F)c1` [Example 28, (S)-2-(3,5-Difluoro-phenyl)-N-[4-(4-fluoro-2-methyl-phenyl)-6-(2-hydroxymethyl-pyrrolidin-1-yl)-pyridin-3-yl]-N-methyl-isobutyramide], the Ki was 2.82 nM at human NK1 receptor (setting [2]) and 3.98 nM in assay [1] (setting [3]).

As to `COc1cc(OC)cc(C(C)(C)C(=O)N(C)c2cnc(NCCO)cc2-c2ccc(F)cc2C)c1` [Example 401, 2-(3,5-Dimethoxy-phenyl)-N-[4-(4-fluoro-2-methyl-phenyl)-6-(2-hydroxy-ethylamino)-pyridin-3-yl]-N-methyl-isobutyramide], the Ki in assay [1] (setting [5]) is 20 nM.

Regarding `COc1cc(OC)cc(C(C)(C)C(=O)N(C)c2cnc(N3CCC[C@H]3CO)cc2-c2ccc(F)cc2C)c1` [Example 402, (S)-2-(3,5-Dimethoxy-phenyl)-N-[4-(4-fluoro-2-methyl-phenyl)-6-(2-hydroxymethyl-pyrrolidin-1-yl)-pyridin-3-yl]-N-methyl-isobutyramide], in assay [1] (setting [5]), the Ki was 4.68 nM.

For `COc1cc(OC)cc(C(C)(C)C(=O)N(C)c2cnc(N3C[C@H](O)C[C@H]3CO)cc2-c2ccc(F)cc2C)c1` [Example 403, (2S,4R)-2-(3,5-Dimethoxy-phenyl)-N-[4-(4-fluoro-2-methyl-phenyl)-6-(4-hydroxy-2-hydroxymethyl-pyrrolidin-1-yl)-pyridin-3-yl]-N-methyl-isobutyramide], in assay [1] (setting [5]), the Ki is 5.75 nM.

With `COc1cc(OC)cc(C(C)(C)C(=O)N(C)c2cnc(N3C[C@H](O)C[C@H]3CO)cc2-c2ccccc2C)c1` [Example 400, (2S,4R)-2-(3,5-Dimethoxy-phenyl)-N-[6-(4-hydroxy-2-hydroxymethyl-pyrrolidin-1-yl)-4-o-tolyl-pyridin-3-yl]-N-methyl-isobutyramide], the Ki in assay [1] (setting [5]) is 6.03 nM.
